The term IC50 denotes the concentration needed to halve the response being measured. Read a low IC50 as higher potency.

This test deals with GTPase KRas (Homo sapiens, UniProt P01116, G12V). Nature of the test: Inhibition of GDP bound KRAS G12V mutant (unknown origin).
GTPase KRas, sequence (P01116 whole entry G12V): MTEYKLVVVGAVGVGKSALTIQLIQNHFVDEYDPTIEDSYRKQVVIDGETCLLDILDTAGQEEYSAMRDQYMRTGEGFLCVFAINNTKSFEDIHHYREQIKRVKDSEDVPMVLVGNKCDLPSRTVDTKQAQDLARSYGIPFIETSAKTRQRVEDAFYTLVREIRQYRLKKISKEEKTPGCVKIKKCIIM
In the case of `C#Cc1c(F)ccc2cc(O)cc(-c3ncc4c(N(C)[C@H]5C[C@@H]5F)nc(OC[C@@]56CCCN5CC(=C)C6)nc4c3F)c12`, the IC50 came out at 0.246 nM.
`[2H]C([2H])([2H])N(c1nc(OC([2H])([2H])C23CCC([2H])([2H])N2C[C@]([2H])(F)C3)nc2c(F)c(-c3cc(O)cc4ccc(F)c(C#C)c34)ncc12)[C@H]1C[C@@H]1F` (some centres not stated) came in with an IC50 of 0.216 nM.
To `[2H]C([2H])([2H])N(c1nc(OC([2H])([2H])C23CCC([2H])([2H])N2C[C@@]([2H])(F)C3)nc2c(F)c(-c3cc(O)cc4ccc(F)c(C#C)c34)ncc12)[C@H]1C[C@@H]1F` (some centres not stated) belongs 0.689 nM; to `C#Cc1c(F)ccc2cc(O)cc(-c3ncc4c(N(C)[C@H]5C[C@@H]5F)nc(OCC56CCCN5CC(=C)C6)nc4c3F)c12` (some centres not stated), 0.405 nM.
The molecule `C#Cc1c(F)ccc2cc(N)cc(-c3ncc4c(N(C)[C@H]5C[C@@H]5F)nc(OCC56CCCN5CC(=C)C6)nc4c3F)c12.OCC(F)(F)F` (some centres not stated) gave an IC50 of 1.99 nM.
`C#Cc1c(F)ccc2cc(O)cc(-c3ncc4c(N(C)[C@H]5C[C@@H]5F)nc(OCC56CCCN5CC(=C)C6)nc4c3F)c12.OCC(F)(F)F` (some centres not stated): the IC50 is 0.371 nM.
Molecule `C#Cc1c(F)ccc2cc(O)cc(-c3ncc4c(N(C)[C@H]5C[C@@H]5F)nc(OC[C@]56CCCN5CC(=C)C6)nc4c3F)c12` yielded an IC50 of 0.589 nM.

Values taken from ChEMBL document CHEMBL5608221, “Innovative Therapeutic Approaches Targeting K-Ras: Analysis of Macrocyclic Compounds, Peptidomimetics, and Pyridopyrimidine Inhibitors” (ACS Med Chem Lett, 2024).
